{"source": "patent US3995033A", "about": "“Secondary phosphoric acid esters, composition and method of use” (priority 1971, dated 1976)", "key": {"[1]": {"system": "contractions produced by histamine and bradykinin, isolated guinea-pig ileum", "assay": "Selectivity on the isolated guinea-pig ileum: histamine and bradykinin", "details": "concentrations as low as 5 μg/ml"}, "[2]": {"system": "Slow Reacting Substance (SRS) contractions of isolated guinea-pig ileum", "assay": "Antagonism to Slow Reacting Substance on the isolated guinea-pig ileum", "method": "The antagonism to Slow Reacting Substance (SRS) is determined on the isolated guinea-pig ileum as described by Mathe & Standberg (Acta physiol. scand. 82:460, 1971). Purified SRS is obtained from cat paws perfused with compound 48/80 (Strandberg & Uvnas: Acta physiol. scand. 82.358, 1971). Sodium 4-(3-oxo-3-(2,4,6-trihydroxyphenyl)propyl)phenyl phenyl phosphate was tested in this system in several concentrations."}, "[3]": {"system": "bronchial smooth muscle, isolated perfused guinea-pig lung", "assay": "Effect on bronchial smooth muscle, isolated perfused guinea-pig lung", "from_the_text": "The effects of esters of the present invention on bronchial smooth muscle have been investigated using an isolated perfused guinea-pig lung preparation according to Thattacharya & Delaunois (Arch. Int. Pharmacodyn. 101:495, 1955). The lungs from guinea-pigs weighing 300-400 g are removed, and the trachea and A. pulmonalis cannulated. The arterial cannula is connected to a perfusion fluid reservoir containing Tyrode solution buffered with 10 % Sorensen phosphate buffer. The tracheal cannula is connected with tubing to a carbogen gas supply delivering a constant amount per time unit. The perfusion pressure is measured in a side arm of the tubing with a \"Mercury\" transducer connected to an Ultralette UV-recorder. The compounds are injected via the arterial cannula, close to the entrance of A. pulmonalis in the lung."}, "[4]": {"system": "gerbil colon (ascending colon) in vivo", "assay": "Smooth muscle stimulatory effect on the gerbil colon in vivo", "parameters": "species or system mongolian gerbils", "method": "The experiments are performed with mongolian gerbils, anesthetized with pentobarbital, 50 mg/kg. The ascending colon is exposed and carefully stretched between silk thread loops and a strain-gauge transducer.\nAfter a stable base-line has been established an eter of this invention, sodium 3,5-dimethylphenyl 4-(3-(2,4,6-trihydroxyphenyl)-3-oxopropyl)phenylphosphate (Leo 1258) is infused i.v."}, "[5]": {"system": "anaphylactic bronchoconstriction elicited by antigen (egg albumin), isolated perfused guinea-pig lung", "assay": "Anaphylactic bronchoconstriction in the isolated perfused lung of sensitized guinea-pigs", "from_the_text": "The effects of esters of the present invention on the anaphylactic reaction in guinea-pigs have been investigated using the isolated perfused guinea-pig lung preparation as described by Bhattacharya & Delaunois (Arch. Int. Pharmacodyn. 101:495, 1955). Guinea-pigs weighing about 300 g are sensitized with egg albumin according to Fredholm & Strandberg (1969). After the appropriate sensitization period the lungs are removed and mounted in a moist, thermostated chamber. The trachea and A. pulmonalis are cannulated. The arterial cannula is connected to a perfusion fluid reservoir containing Tyrode solution buffered with 10 % Sorensen phosphate buffer. The tracheal cannula is connected with tubing to a carbogen gas supply delivering a constant amount per time unit. The perfusion pressure is measured in a side arm of the tubing with a \"Mercury\" transducer connected to an Ultralette UV-recorder. When antigen (egg albumin), 0.1 - 1.0 μg, is injected via the arterial cannula, a broncho-constriction, indicated by an increase in the perfusion pressure, is elicited."}, "[6]": {"system": "gerbil colon, contractions produced by prostaglandins E1, E2, F1α and F2α", "assay": "PG-inhibitory effect on the isolated gerbil colon", "parameters": "species or system Gerbils (Meriones unguiculatus)", "method": "The PG-inhibitory effect of esters of the present invention on the gerbil colon are determined using the general technique described by Eakins, Miller & Karim (J. Pharm. Exp. Ther. 176:441, 1971). Gerbils (Meriones unguiculatus) of own breed, both sexes, weighing 50-80 g are used. The animal is stunned, colon ascendens immediately removed, and a 2-3 cm piece mounted in a 6 ml bath containing a modified de Jalon solution at 28° C and continuously oxygenated. Contractions of the organ are registered either isotonicaly or isometrically. When testing the inhibitory effect of a compound this is added to the bath 2 min. before the addition of prostaglandin. The antagonist (esters of this invention) is usually dissolved in saline, but occasionally an organic solvent such as ethanol has to be included. Several concentrations of each antagonist are used. In this system prostaglandins E1, E2, F1α and F2α produce suitable contractions of the organ in the concentration range 1-50 ng/ml.\nResults from these experiments give an approximation of the PG-inhibitory potency of the compounds. When more precise information about this is desired we use a more elaborate method involving the establishment of several […] dose-response curves in the presence of various concentrations of inhibitor. The method used is essentially the same as that described by Arunlakshana & Schild (Br. J. Pharm. 14:48, 1959). […]"}, "[7]": {"system": "PGE2-stimulated corticosterone production by adrenals", "assay": "Prostaglandin-stimulated corticosterone production by rat adrenals in vitro", "type": "cell-based, Sprague-Dawley male rats", "details": "for Corticosterone production: mean ± standard error", "method": "The inhibitory effect of esters of the present invention has been investigated on the prostaglandin-stimulated corticosterone production by adrenals from male rats in vitro. The experiments were performed using adult Sprague-Dawley male rats weighing 200-250 g, which were housed 1 per cage under conditions of controlled lighting and temperature. Animal quarters were not entered during the 18 hours preceding the experiment. The animals were sacrified by decapitation at 10 AM under conditions chosen to minimize disturbance of the animals. The adrenals were decapsulated and quartered and 8 adrenal quarters from different animals were distributed to 10 ml Erlenmeyer flasks containing 0.5 ml 0.9 % saline and 2.0 ml Krebs-Ringer bicarbonate buffer, pH 7.4. The weight of the adrenal tissue in each flask was determined. The flasks were gassed with 95 % O 2 -- 5 CO2 and preincubated at 37° C for 1 hour with continuous shaking. Following preincubation the media were decanted and discarded. One ml of Krebs-Ringer buffer, with or without the additions of prostaglandin E2 (PGE2) sodium 3,5-dimethylphenyl 4-(3-(2,4,6-trihydroxyphenyl)-3-oxopropyl)phenyl phosphate.\n(for details see below) was added to the flasks, which were then gassed with 95 % 02 -- 5 % CO2 and kept at 37° C for 1 hour with continuous shaking. Following incubation, corticosterone levels were determined on 0.5 ml aliquots of the medium by the sulphuric acid fluorescence method.\nIn the first experiment (I) PGE2 in a concentration of 1 μg/ml was added to the incubation medium containing the quartered adrenals.\nIn the next experiment (II) different amounts of Leo 1258 to the incubation medium."}, "[8]": {"system": "PGE1-stimulated ovarian glycolysis", "assay": "In vivo action on prostaglandin-stimulated glycolysis of the prepubertal ovary (i.p. injection, ovaries then incubated with PGE1)", "parameters": "species or system Prepubertal rats of the Sprague-Dawley strain", "details": "injected i.p. (500 μg in 1 ml saline) one hour before removal of ovaries; PGE1 0.4 μg/ml, 2 hours", "method": "Prepubertal rats, 24-26 days old, of the Sprague-Dawley strain, are injected intraperitoneally (i.p.) with 1 ml saline containing 500 μg sodium 3,5-dimethylphenyl 4-(3-(2,4,6-trihydroxyphenyl)-3-oxo-propyl)phenyl phosphate.\nOne hour later the animals are sacrified by cervical fracture and the ovaries are removed and trimmed free of extraneous tissue. The ovaries are then transferred to an incubation bath containing prostaglandin E1 (PGE1; 0.4 μg/ml) dissolved in Krebs bicarbonate buffer and incubated at 37° C for 2 hours with continuous shaking. The ovarian glyclysis is then determined by measuring the concentration of lactic acid in the incubation medium. The details of the method have been described previously (Perkley, T. & Ahren, K., Life Sciences Part I, 10:1387, 1971)."}, "[9]": {"system": "ovarian lactic acid production produced by PGE1", "assay": "Prostaglandin-stimulated glycolysis of the prepubertal ovary in vitro", "type": "cell-based, prepubertal rats", "method": "The action of esters of the present invention on the prostaglandin-stimulated glycolysis of the prepubertal ovary is investigated. The method used has been described in detail by Perklev & Ahren (Life Sciences Part I, 10:1387, 1971). In these experiments ovaries from prepubertal rats are removed and placed in Erlenmeyer flasks containing compounds of this invention dissolved in Krebs bicarbonate buffer. After that the ovaries have been preincubated during 60 min. at 37° C in this medium, they are blotted on filter paper and then washed for 2 min. in plain buffer. The ovaries are then transferred to a new incubation medium containing prostaglandins (PG) dissolved in Krebs bicarbonate buffer and incubated at 37° C for 2 hours with continuous shaking. The ovarian glycolysis is then determined by measuring the concentration of lactic acid in the incubation medium. When polyphloretin phosphate (PPP) is present in the preincubation medium in a concentration of 500 μg/ml, the subsequent ovarian lactic acid production produced by PGE1 is reduced to about 50 % of that obtained with ovaries preincubated in plain buffer."}}, "note": "Counter-ions that a name gives are not always drawn."}
{"smiles": "O=C(CCc1ccc(OP(=O)([O-])Oc2ccccc2)cc1)c1c(O)cc(O)cc1O.[Na+]", "note": "[sodium 4-(3-oxo-3-(2,4,6-trihydroxyphenyl)propyl)-phenyl phenyl phosphate]", "values": [{"measurement": "inhibition of contractions produced by histamine and bradykinin", "setting": "[1]", "result": "not by histamine and bradykinin"}, {"measurement": "concentration that inhibits contractions produced by SRS", "setting": "[2]; concentrations as low as", "result": 5, "unit": "µg/mL"}, {"measurement": "manner of the inhibition of SRS contractions", "setting": "[2]; parallel shift of the dose-response curves, no change in maximum contraction", "result": "competitive"}]}
{"smiles": "O=P(O)(Oc1ccccc1)Oc1ccccc1", "note": "[sodium salt of diphenyl phosphate, reference compound]", "values": [{"measurement": "broncho-constricting effect", "setting": "[3]; dose of 12.8 mg", "result": "completely lacked such an effect"}, {"measurement": "effect on the gut", "setting": "[4]; i.v., doses up to 400 mg/kg", "result": "no effect at all"}, {"measurement": "antagonism to SRS", "setting": "[2]", "result": "without effect"}, {"measurement": "effect on the anaphylactic bronchoconstriction", "setting": "[5]; concentration 100 μg/ml", "result": "completely lacked such an effect"}, {"measurement": "PG-inhibitory effect on the gerbil colon", "setting": "[6]; concentrations 10 times as high as that of PPP", "result": "without effect"}]}
{"smiles": "CCCCC[C@H](O)/C=C/[C@H]1[C@H](O)CC(=O)[C@@H]1C/C=C\\CCCC(=O)O", "note": "[PGE2, prostaglandin E2, reference compound]", "values": [{"measurement": "Corticosterone production", "setting": "[7]; Exp. I, PGE2 1 μg/ml alone, 4 observ.", "result": "7.6±0.4", "unit": "μg/100 mgx 1 h"}, {"measurement": "Corticosterone production", "setting": "[7]; Exp. II group B, PGE2 1 μg/ml alone", "result": "8.4±0.5", "unit": "μg/100 mgx 1 h"}, {"measurement": "effect on the corticosterone concentration", "setting": "[7]; PGE2 1 μg/ml, Exp. I", "result": "highly significant increase"}]}
{"smiles": "Cc1cc(C)cc(OP(=O)(O)Oc2ccc(CCC(=O)c3c(O)cc(O)cc3O)cc2)c1", "note": "[Leo 1258, sodium 3,5-dimethylphenyl 4-(3-(2,4,6-trihydroxyphenyl)-3-oxopropyl)phenylphosphate]", "values": [{"measurement": "ovarian glycolysis (lactic acid) compared with saline-injected animals", "setting": "[8]", "result": "significantly reduced"}, {"measurement": "dose showing a broncho-constricting effect", "setting": "[3]; injected via the arterial cannula", "result": "≥ 0.5", "unit": "mg"}, {"measurement": "activity as a prostaglandin inhibitor relative to PPP", "setting": "[9]", "result": "5-10 times"}, {"measurement": "IC50", "setting": "[9]; Rattus norvegicus, 60 min. preincubation, then 2 hours with PG, read-out: concentration in the preincubation medium giving about 50 % reduction of the lactic acid production produced by PGE1", "result": "50 to 100", "unit": "µg/mL"}, {"measurement": "reaction of the gut", "setting": "[4]; 1 mg/ml in the buffer solution superfusing the gut", "result": "increase in tone"}, {"measurement": "minimal effective dose", "setting": "[4]; Meriones unguiculatus, iv, infused i.v., anesthetized gerbils, read-out: dose that causes the gut to respond with a series of contractions", "result": "≥ 40", "unit": "mg/kg"}, {"measurement": "effect on the anaphylactic bronchoconstriction", "setting": "[5]; 4-20 μg/ml incorporated in the Tyrode solution", "result": "abolished or markedly reduced"}, {"measurement": "effect on the PGE2-stimulated corticosterone production", "setting": "[7]; 0.25 and 1.0 mg added to the incubation bath", "result": "dose-related inhibition"}, {"measurement": "Corticosterone production", "setting": "[7]; Exp. II group A, Leo 1258 250 μg/ml without PGE2", "result": "3.9±0.5", "unit": "μg/100 mgx 1 h"}, {"measurement": "Corticosterone production", "setting": "[7]; Exp. II group C, PGE2 1 μg/ml + Leo 1258 250 μg/ml", "result": "6.5±0.5", "unit": "μg/100 mgx 1 h"}, {"measurement": "Corticosterone production", "setting": "[7]; Exp. II group D, PGE2 1 μg/ml + Leo 1258 1 mg/ml", "result": "2.9±0.2", "unit": "μg/100 mgx 1 h"}, {"measurement": "concentration for 50 per cent reduction of the PG-induced contraction, as fraction of that of PPP", "setting": "[6]; relative to PPP", "result": "about one tenth"}]}
